Experimental data taken from patent US6645917B2, “Composition for hybrid seed production, process for the preparation of such composition and use thereof” (Council of Scientific and Industrial Research, priority 2002, dated 2003).
Like-named read-outs stand apart in the source and are kept apart here.

Columns and labels:
wheat plants = experiment: Spray of chemicals in combinations and as individual molecules on wheat plants (Table 3); format: in vivo
Protocol: The effects of the composition with varied concentration of compound 1 and 2 were evaluated for two crops years. The aqueous solution of the compositions were sprayed on the wheat plants when the Spike length of 7-12 mm. i.e. growth of 20-22 of Zadoks scale, reached between 40-50 days after germination.
In a future of the present invention the calculation of male/female sterility is based on number of seeds and is done as per formula given below:
Male Sterility (%)=(Untreated Control−Bagged Spikes×100/Untreated Control
Female Sterility (%)=(Untreated Control−Bagged Spikes)×100/Untreated Control
The chemical formulation can be used at a rate of 1.8 kg/ha or below (following male: female ratio of 1:2) depending upon genotypes used, date of planting and growth stage. The female lines were sprayed with the chemical combination at the appropriate growth stage and concentration. The spike of 7-12 mm i.e. growth stage 20-22 of Zadoks scale (Zadoks J V, Chang T T and Konzak C F 1974. Weed Research 14: 415421) was ideal for generating effective male sterility in spring wheat. This stage is reached between 40-50 days after germination at optimum time of sowing in most of the genotypes. The date of spray varied depending upon the genotype used. A high volume spray pump may be used so as to cover the complete female plant.

wheat [1] = tested on: wheat; set-up: Effective dose: unit not given beside the values; details: cited from earlier work; for Female sterility / Germination (%) / Max. seed shriveling (Scale 1-5) / Seed setting: at effective dose; for Female sterility / Germination (%) / Max. seed shriveling (Scale 1-5) / Seed setting / Effective dose: 7-8 mm spike length; for Effective dose: minimum effective dose for complete male sterility
wheat [2] = details: cited from earlier work
[3] = at minimum effective dose for complete male sterility
[4] = wheat, side effects on plant and seed

Cc1cc(=O)c(C(=O)[O-])nn1-c1ccc(Cl)cc1.[K+] [CH9701, potassium 1-[4-chlorophenyl]-1,4 dihydro-6-methyl-4-oxopyridazine-3-carboxylate]
Female sterility (wheat plants): high female sterility
damage to florets (wheat plants): damage to florets
male sterility (wheat plants): complete male sterility
seed set (wheat plants): low seed set
female sterility (CH9701 compared with CH9832) (wheat [1]; [3]): higher
seed germination (CH9701 compared with CH9832) (wheat [1]; [3]): comparable
seed shriveling (CH9701 compared with CH9832) (wheat [1]; [3]): higher
Female sterility (wheat [1]; variety PBW343): 88.3
Germination (%) (wheat [1]; variety PBW343): 95%
Max. seed shriveling (Scale 1-5) (wheat [1]; variety PBW343): 3
Seed setting (wheat [1]; variety PBW343): 20.0
Effective dose (wheat [1]; variety PBW343): 500
Female sterility (wheat [1]; variety WH542): 90.7
Germination (%) (wheat [1]; variety WH542): 85%
Max. seed shriveling (Scale 1-5) (wheat [1]; variety WH542): 2
Seed setting (wheat [1]; variety WH542): 56.7
Effective dose (wheat [1]; variety WH542): 250

Cc1cc(=O)c(C(=O)[O-])nn1-c1ccc(F)c(Cl)c1.[K+] [CH9832, potassium 1-[4-fluoro, 3-chlorophenyl]-1,4 dihydro6-methyl-4-oxopyridazine-3-carboxylate]
Female sterility (wheat plants): low female sterility
damage to florets (wheat plants): no damage to florets
male sterility (wheat plants): complete male sterility
seed set (wheat plants): low seed set
seed germination (CH9701 compared with CH9832) (wheat [1]; [3]): comparable
seed setting (CH9832 compared with CH9701) (wheat [1]; [3]): numerically higher
Female sterility (wheat [1]; variety PBW343): 40.2
Germination (%) (wheat [1]; variety PBW343): 90%
Max. seed shriveling (Scale 1-5) (wheat [1]; variety PBW343): 2
Seed setting (wheat [1]; variety PBW343): 49.0
Effective dose (wheat [1]; variety PBW343): 500
Female sterility (wheat [1]; variety WH542): 10.7
Germination (%) (wheat [1]; variety WH542): 65%
Max. seed shriveling (Scale 1-5) (wheat [1]; variety WH542): 2
Seed setting (wheat [1]; variety WH542): 65.5
Effective dose (wheat [1]; variety WH542): 500

COc1nc(=O)n(-c2ccc(Cl)cc2)c(=O)[nH]1.OCCN(CCO)CCO [DPX 3778]
Sterility (optimum treatment) Female (wheat [2]; wheat, optimum treatment): Sight
Sterility (optimum treatment) Male (wheat [2]; wheat, optimum treatment): High
Remarks (wheat [2]; [4]): Shorter plant, leaf

CC(Cl)(Cl)C(=O)O [Dalapon]
Sterility (optimum treatment) Female (wheat [2]; wheat, optimum treatment): Severe
Sterility (optimum treatment) Male (wheat [2]; wheat, optimum treatment): Partial
Remarks (wheat [2]; [4]): Severe plant damage

O=P(O)(O)CCCl [Ethephon]
Sterility (optimum treatment) Female (wheat [2]; wheat, optimum treatment): Significant
Sterility (optimum treatment) Male (wheat [2]; wheat, optimum treatment): High
Remarks (wheat [2]; [4]): Height and seed size

C=C1C[C@]23C[C@@]1(O)CC[C@H]2[C@@]12C=C[C@H](O)[C@@](C)(C(=O)O1)[C@H]2[C@@H]3C(=O)O [Gibberellic acid]
Sterility (optimum treatment) Male (wheat [2]; wheat, optimum treatment): Poor

Cc1cc(=O)c(C(=O)[O-])nn1-c1ccc(Cl)cc1.[K+] [Hybrex]
Remarks (wheat [2]; in vivo): Risk of damage
Sterility (optimum treatment) Female (wheat [2]; in vivo): Slight
Sterility (optimum treatment) Male (wheat [2]; wheat, optimum treatment): High

CC(Cl)(CCl)C(=O)[O-].[Na+] (stereo not shown) [Mendok]
Remarks (wheat [2]; in vivo): Severe plant damage,
Sterility (optimum treatment) Female (wheat [2]; in vivo): Significant
Sterility (optimum treatment) Male (wheat [2]; wheat, optimum treatment): Poor

Cc1cc(C)n(-c2ccc(Cl)cc2)c(=O)c1C(=O)[O-].[Na+] [RH-531]
Sterility (optimum treatment) Female (wheat [2]; wheat, optimum treatment): Significant
Sterility (optimum treatment) Male (wheat [2]; wheat, optimum treatment): High
Remarks (wheat [2]; [4]): Inhibit veg. Growth

O=C(O)C1CNC1 [WL 84811]
Sterility (optimum treatment) Female (wheat [2]; wheat, optimum treatment): Very
Sterility (optimum treatment) Male (wheat [2]; wheat, optimum treatment): Nearly
Remarks (wheat [2]; [4]): Toxic residues in F1
